Measured values: paper PMC8698070, “The Zoonotic Helminth Parasite Fasciola hepatica: Virulence-Associated Cathepsin B and Cathepsin L Cysteine Peptidases Secreted by Infective Newly Excysted Juveniles (NEJ)” (Animals : an Open Access Journal from MDPI, 2021)
Entries after “also recorded” stand apart in the source; their conditions may differ. Where a SMILES comes first, the peptide text is derived from it. The star is where a group is joined. Cbz = O=C(OCc1ccccc1)*; CH2F = FC*

How the values were obtained:
[1] = target: FhCB2 (Fasciola hepatica, UniProt A5X493); assay: Inhibition of recombinant FhCB2, fluorogenic substrate assay (Z-Val-Ile-Arg-AMC); type: biochemical; conditions: for inhibition of enzymatic activity (inhibitor screen, Figure 5), in words: FhCB2, inhibitor 1000-15 nM
Method: (§1) Recombinant peptidases were assayed for enzymatic activity using a fluorogenic substrate assay. The reactions were carried out in 0.1 M C-P buffer (pH 7.0) with 1 mM DTT in a final volume of 200 μL, in a black 96-well plate. Each well contained activated enzyme (140 nM) and 20 μM fluorogenic substrate, which was added to start the reaction. All assays were run in triplicate at 37 °C for 1 h. Enzyme activity was monitored by rate of hydrolysis and subsequent release of the AMC group on the synthetic peptide substrates at an excitation wavelength of 370 nm and an emission wavelength of 460 nm, as relative fluorescence units (RFU), in a PolarStar Omega Spectrophotometer (BMG Labtech, Aylesbury, UK). All data were plotted and analysed using MARS Data Analysis Software (BMG Labtech, UK) and GraphPad Prism version 5.
(§2) Commercially available inhibitors of cathepsin B (Ca074 and Ca074-OMe), cathepsin L (L, L1, LII, LIII and LIV), cathepsin K (KI, KII and KIII) and cathepsin S were purchased from Merck Millipore (Cork, Ireland; Supplementary Figure S2). The broad-spectrum papain peptidase inhibitor Z-Phe-Ala-FMK was purchased from Enzo Life Sciences (Exeter, UK). These were used to determine and compare the inhibition constant (Ki) against the recombinant FhCBs and FhCL3. All the assays were carried out in 0.1 M C-P buffer with 1 mM DTT and 0.01% Brij® L23, at the pH corresponding to the optimum for each enzyme in a total 200 µL reaction volume. The peptidases (140 nM) were pre-incubated with the inhibitor (1000-15 nM) at room temperature, for 30 min, before starting the reaction by the addition of the substrate that was optimal for each enzyme (FhCB1, Z-Phe-Arg-AMC; FhCB2 and FhCB3, Z-Val-Ile-Arg-AMC; FhCL3, Z-Gly-Pro-Arg-AMC). Substrate concentrations were equal to KM (shown in Table 1) and the apparent inhibition constant (Ki^app) values were calculated with GraphPad Prism 5, using the Morrison equation for tight binding inhibition (Equation (3)). For competitive inhibitors, such as those used in this study, Ki^app was fitted to a second equation (Equation (4)) from which Ki can be determined. (3) vi/vo=1−([E])+[I]+Kiapp)−([E]+[I]+Kiapp)^2−4[E][I] /2[E] (4) Kiapp=Ki(1+[S]/KM)

[2] = target: FhCL3 (Fasciola hepatica, UniProt A0A879R2T5); assay: Inhibition of recombinant FhCL3, fluorogenic substrate assay (Z-Gly-Pro-Arg-AMC); type: biochemical; conditions: for inhibition of enzymatic activity (inhibitor screen, Figure 5), in words: FhCL3, inhibitor 1000-15 nM
Method: as §1, §2

[3] = target: FhCB3 (Fasciola hepatica, UniProt A7UNB2); assay: Inhibition of recombinant FhCB3, fluorogenic substrate assay (Z-Val-Ile-Arg-AMC); type: biochemical; conditions: for inhibition of enzymatic activity (inhibitor screen, Figure 5), in words: FhCB3, inhibitor 1000-15 nM
Method: as §1, §2

[4] = target: FhCB1 (Fasciola hepatica, UniProt Q8I7B2); assay: Inhibition of recombinant FhCB1, fluorogenic substrate assay (Z-Phe-Arg-AMC); type: biochemical; conditions: for inhibition of enzymatic activity (inhibitor screen, Figure 5), in words: FhCB1, inhibitor 1000-15 nM
Method: as §1, §2

[5] = system: Cc1cc(=O)oc2cc(NC(=O)[C@H](CCCNC(=N)N)NC(=O)[C@H](Cc3ccccc3)NC(=O)OCc3ccccc3)ccc12; assay: purified protein, by the assay type; conditions: other: FhCB1; substrate 2000–4 μM, optimum pH; ± standard deviation; pH 7.0; 37.0 °C
Method: (§3) To determine the kinetic constants, Kcat, KM and Kcat/KM of the activated peptidases against the Z-Phe-Arg-AMC, Z-Gly-Pro-Arg-AMC and Z-Val-Ile-Arg-AMC substrates were used at concentrations of 2000–4 μM over a series of 10 dilutions using enzymes, buffer and assay conditions as described above. The kinetic constants, KM and Vmax, were calculated using the Michaelis–Menten equation (Equation (1)) in a non-linear regression analysis of initial reaction velocity against substrate concentration (built into GraphPad Prism 5). The value of KM can then be fitted to Equation (2) to determine the catalytic constant Kcat. (1) ν=d[P]/dt=Vmax[S]/KM+[S] where ν is the initial reaction velocity, [P] is the concentration of the formed product, [S] is the substrate concentration, Vmax is the maximum rate achieved by the system and KM is the Michaelis–Menten constant, which represents the concentration of substrate at which the reaction has a rate equal to half of Vmax. (2) ν=Kcat[Et]{}[S]/KM+[S] where [Et] is the enzyme concentration and Kcat is the catalytic constant, representing the measure of substrate molecules converted to product by enzyme per second.

[6] = system: Cc1cc(=O)oc2cc(NC(=O)[C@H](CCCNC(=N)N)NC(=O)[C@@H]3CCCN3C(=O)CNC(=O)OCc3ccccc3)ccc12; assay: purified protein, by the assay type; conditions: other: FhCL3; substrate 2000–4 μM, optimum pH; ± standard deviation; pH 7.0; 37.0 °C
Method: as §3

[7] = target: T1, cathepsin L1 (HsCL1) (Homo sapiens, UniProt P07711); assay: Inhibitor screen against human cathepsin L1 control; type: biochemical
T1 construct: purchased Sigma-Aldrich; host or cells: human embryonic kidney cells
Text: The Schistosoma mansoni cathepsin B1 (SmCB1) was also produced in our laboratory using P. pastoris as described above. The human cathepsin B (HsCB) and cathepsin L1 (HsCL1) were produced in human embryonic kidney cells (Sigma-Aldrich).
as §2
A panel of 12 commercially available cysteine peptidase inhibitors that preferentially target mammalian cathepsin B (Ca074 and Ca074-OMe), cathepsin L (L, L1, LII, LIII and LIV) cathepsin S (S) and cathepsin K (KI, KII and KIII) were screened against the FhCBs, FhCL3 and, as controls, HsCB and HsCL1. The broad-range cysteine peptidase inhibitor Z-Phe-Ala-FMK was also included (Figure 5).
Figure 5 Profile of inhibition of FhCB1, FhCB2, FhCB3 and FhCL3. Commercially available inhibitors of cathepsin B (Ca074 and Ca07a-OMe), cathepsin L (L, L1, LII, LIII and LIV), cathepsin K (KI, KII and KIII), cathepsin S and the broad-spectrum papain peptidase inhibitor Z-Phe-Ala-FMK (A–L) were used to determine and compare the inhibition constant against recombinants FhCB1, FhCB2, FhCB3, FhCL3, HsCB and HsCL1. Activity is represented as the percentage of enzymatic activity observed by hydrolysis of a fluorogenic quenched peptide substrate following a pre-incubation with inhibitor in relation to the activity of the enzyme alone. Error bars indicate standard deviation of three replicates.

Sequence of FhCB3 (A7UNB2 entry or part of it): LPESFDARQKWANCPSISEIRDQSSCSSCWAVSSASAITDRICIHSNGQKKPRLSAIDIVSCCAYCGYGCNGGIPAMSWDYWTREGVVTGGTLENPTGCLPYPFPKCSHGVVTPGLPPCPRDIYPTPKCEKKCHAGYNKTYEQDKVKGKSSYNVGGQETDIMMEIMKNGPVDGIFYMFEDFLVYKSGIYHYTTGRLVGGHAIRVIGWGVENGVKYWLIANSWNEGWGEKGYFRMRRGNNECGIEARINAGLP
T1 sequence (P07711 114-333): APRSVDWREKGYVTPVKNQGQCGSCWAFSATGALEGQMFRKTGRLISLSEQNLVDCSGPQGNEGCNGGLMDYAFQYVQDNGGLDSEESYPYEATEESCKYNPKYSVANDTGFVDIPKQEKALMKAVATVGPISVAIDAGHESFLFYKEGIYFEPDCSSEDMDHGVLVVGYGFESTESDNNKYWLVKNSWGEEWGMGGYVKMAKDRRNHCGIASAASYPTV
Sequence of FhCB1 (Q8I7B2 entry or part of it): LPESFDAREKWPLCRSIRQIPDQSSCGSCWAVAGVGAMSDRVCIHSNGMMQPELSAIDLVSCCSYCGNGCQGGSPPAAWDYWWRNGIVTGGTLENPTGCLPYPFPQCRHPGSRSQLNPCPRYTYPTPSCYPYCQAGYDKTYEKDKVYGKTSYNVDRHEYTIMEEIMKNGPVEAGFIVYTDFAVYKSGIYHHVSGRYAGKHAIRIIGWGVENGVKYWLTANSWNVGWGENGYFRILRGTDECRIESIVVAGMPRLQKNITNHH
Sequence of FhCB2 (A5X493 entry or part of it): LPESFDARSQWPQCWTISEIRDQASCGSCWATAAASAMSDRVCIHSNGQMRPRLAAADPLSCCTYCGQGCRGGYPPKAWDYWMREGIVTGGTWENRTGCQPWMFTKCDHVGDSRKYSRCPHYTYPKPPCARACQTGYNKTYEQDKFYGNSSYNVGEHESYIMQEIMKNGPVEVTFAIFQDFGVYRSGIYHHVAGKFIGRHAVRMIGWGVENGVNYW
Sequence of FhCL3 (A0A879R2T5 entry or part of it): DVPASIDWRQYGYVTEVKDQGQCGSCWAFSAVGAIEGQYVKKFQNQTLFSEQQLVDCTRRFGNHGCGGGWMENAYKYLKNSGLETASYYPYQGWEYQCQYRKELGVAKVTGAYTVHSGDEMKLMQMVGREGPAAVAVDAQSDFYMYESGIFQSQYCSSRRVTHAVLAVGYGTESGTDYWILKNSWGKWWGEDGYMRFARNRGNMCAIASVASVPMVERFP

Row | Molecule | inhibition of enzymatic activity (inhibitor screen, Figure 5), in words [1] | inhibition of enzymatic activity (inhibitor screen, Figure 5), in words [2] | inhibition of enzymatic activity (inhibitor screen, Figure 5), in words [3] | inhibition of enzymatic activity (inhibitor screen, Figure 5), in words [4] | inhibition of enzymatic activity (inhibitor screen, Figure 5), in words [7] | further results
1 | CC(C)C[C@H](NC(=O)OCc1ccccc1)C(=O)NNC(=O)NNC(=O)[C@H](CC(C)C)NC(=O)C(Cc1ccccc1)NC(=O)OC(C)(C)C (some centres unmarked) [KII] | no effect; also recorded: generally poor inhibitors; also recorded: not inhibited | reduced | abrogated the activity; also recorded: reduced | weak inhibitors; also recorded: generally poor inhibitors |  | Ki ([1]; recombinant FhCB2 140 nM, 30 min pre-incubation, substrate Z-Val-Ile-Arg-AMC at KM, optimum pH, ± SEM, read-out: inhibition constant Ki): > 1000 nM; Ki ([2]; recombinant FhCL3 140 nM, 30 min pre-incubation, substrate Z-Gly-Pro-Arg-AMC at KM, optimum pH, ± SEM, read-out: inhibition constant Ki): 0.7 ± 0.19 nM; Ki ([3]; recombinant FhCB3 140 nM, 30 min pre-incubation, substrate Z-Val-Ile-Arg-AMC at KM, optimum pH, ± SEM, read-out: inhibition constant Ki): 227 ± 28.3 nM; Ki ([4]; recombinant FhCB1 140 nM, 30 min pre-incubation, substrate Z-Phe-Arg-AMC at KM, optimum pH, ± SEM, read-out: inhibition constant Ki): 466 ± 40.6 nM
2 | CC(C)C[C@H](NC(=O)OCc1ccccc1)C(=O)NCC(=O)CNC(=O)[C@H](CC(C)C)NC(=O)OCc1ccccc1 [KI] | generally poor inhibitors; also recorded: not inhibited | reduced | reduced | generally poor inhibitors |  | 
3 | CC(C)C[C@H](NC(=O)OCc1ccccc1)C(=O)NNC(=O)NNC(=O)[C@H](CC(C)C)NC(=O)C(N)Cc1ccccc1 (some centres unmarked) [KIII] | no effect; also recorded: generally poor inhibitors; also recorded: not inhibited | reduced | abrogated the activity; also recorded: reduced | weak inhibitors; also recorded: generally poor inhibitors |  | 
4 | FhCB1 (Fasciola hepatica) |  |  |  |  |  | Km [5]: 69 ± 5 µM; kcat [5]: 1.0 ± 0.2 s⁻¹; kcat/Km [5]: 13,596 M^-1S^-1
5 | FhCL3 (Fasciola hepatica) |  |  |  |  |  | Km [6]: 27 ± 2 µM; kcat [6]: 0.5 ± 0.07 s⁻¹; kcat/Km [6]: 17,960 M^-1S^-1
6 | O=C(NC(Cc1ccccc1)C(=O)NC(Cc1ccccc1)C(=O)CF)OCc1ccccc1 (stereo not drawn) [Inhibitor L1] (Cbz-Phe-Phe-CH2F; configuration not given here) |  |  | most effective at blocking | most effective at blocking | specificity for HsCL1 over HsCBs | 
7 | O=C(NCc1ccccc1)C(Cc1ccccc1)NC(=O)C1OC1C(=O)NCCc1ccc(O)cc1 (centres unmarked) [L] | did not inhibit | significantly reduced | significantly reduced | did not inhibit | specificity for HsCL1 over HsCBs | 
8 | COc1ccc(C(=O)ONC(=O)CNC(=O)C(Cc2ccccc2)NC(=O)OCc2ccccc2)cc1 (centres unmarked) [LIII] |  |  |  |  | specificity for HsCL1 over HsCBs | 
9 | CC[C@H](C)[C@H](NS(=O)(=O)c1cccc2ccccc12)C(=O)N[C@H](C=O)Cc1c[nH]c2ccccc12 [LIV] |  |  |  |  | specificity for HsCL1 over HsCBs | 
